Assay results reported in paper PMC5848469 (Combinatorial chemistry & high throughput screening, 2015).

Tests used:
[1] = test system: mammalian tubulin; conditions: fold less potency than on hookworm tubulin; cited from earlier work
[2] = biological target: KIT (Homo sapiens, UniProt P10721); experiment: Kinase active site-directed competition binding assay; conditions: read-out: Percent Control at 10μM
[3] = biological target: KIT (D816V) (Homo sapiens, UniProt P10721, D816V); experiment: as above; conditions: read-out: Percent Control at 10μM
KIT (D816V), sequence (P10721 26-976 D816V): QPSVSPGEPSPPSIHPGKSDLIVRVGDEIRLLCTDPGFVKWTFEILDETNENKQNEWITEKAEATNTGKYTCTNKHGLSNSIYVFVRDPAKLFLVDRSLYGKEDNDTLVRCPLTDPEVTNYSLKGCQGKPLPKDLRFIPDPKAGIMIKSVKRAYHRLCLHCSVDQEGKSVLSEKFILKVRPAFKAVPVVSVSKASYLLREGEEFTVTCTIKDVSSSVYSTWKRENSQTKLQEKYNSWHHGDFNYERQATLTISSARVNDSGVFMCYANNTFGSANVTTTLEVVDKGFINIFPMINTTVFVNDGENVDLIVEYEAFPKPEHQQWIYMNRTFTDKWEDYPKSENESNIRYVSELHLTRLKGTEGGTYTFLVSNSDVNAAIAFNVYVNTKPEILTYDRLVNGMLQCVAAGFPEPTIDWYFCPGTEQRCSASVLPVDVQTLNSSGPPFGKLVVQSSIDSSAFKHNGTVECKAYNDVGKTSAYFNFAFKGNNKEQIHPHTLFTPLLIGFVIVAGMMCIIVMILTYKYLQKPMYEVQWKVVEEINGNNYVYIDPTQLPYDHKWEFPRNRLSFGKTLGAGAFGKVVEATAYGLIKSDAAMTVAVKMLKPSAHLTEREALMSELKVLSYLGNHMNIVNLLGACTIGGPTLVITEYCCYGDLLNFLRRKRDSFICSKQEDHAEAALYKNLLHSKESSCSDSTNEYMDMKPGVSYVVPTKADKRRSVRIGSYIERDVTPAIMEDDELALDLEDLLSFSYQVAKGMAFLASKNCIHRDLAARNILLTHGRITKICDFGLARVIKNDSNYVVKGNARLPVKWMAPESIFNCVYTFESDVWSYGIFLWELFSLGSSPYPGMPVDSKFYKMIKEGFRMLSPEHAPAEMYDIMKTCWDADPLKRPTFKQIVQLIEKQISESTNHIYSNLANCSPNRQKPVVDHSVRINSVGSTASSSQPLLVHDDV

[4] = test system: hookworm tubulin; conditions: cited from earlier work

KIT, sequence (P10721 26-976): as the sequence (P10721 26-976 D816V) above, with V791D counted along it

## COC(=O)Nc1nc2ccc(C(=O)c3ccccc3)cc2[nH]1 [MBZ, mebendazole]
[1]
  potency on mammalian tubulin relative to hookworm tubulin (fold less): 1000 x
[2]
  remaining binding at 10 µM: 7.4%
[3]
  remaining binding at 10 µM: 33%
[4]
  inhibition of hookworm tubulin (potency in words): potent nanomolar inhibition
